ChEMBL document CHEMBL1138006, “Identification of 2,3-diaryl-pyrazolo[1,5-b]pyridazines as potent and selective cyclooxygenase-2 inhibitors” (Bioorg Med Chem Lett, 2004)

Legend:
[1] = target: Prostaglandin G/H synthase 1 (Homo sapiens, UniProt P23219); type: cell-based, COS
Description: Inhibition of human cyclooxygenase-1 expressed in COS cells

[2] = target: T1, Prostaglandin G/H synthase 2 (Homo sapiens, UniProt P35354); type: cell-based, COS
T1 sequence (P35354 whole entry): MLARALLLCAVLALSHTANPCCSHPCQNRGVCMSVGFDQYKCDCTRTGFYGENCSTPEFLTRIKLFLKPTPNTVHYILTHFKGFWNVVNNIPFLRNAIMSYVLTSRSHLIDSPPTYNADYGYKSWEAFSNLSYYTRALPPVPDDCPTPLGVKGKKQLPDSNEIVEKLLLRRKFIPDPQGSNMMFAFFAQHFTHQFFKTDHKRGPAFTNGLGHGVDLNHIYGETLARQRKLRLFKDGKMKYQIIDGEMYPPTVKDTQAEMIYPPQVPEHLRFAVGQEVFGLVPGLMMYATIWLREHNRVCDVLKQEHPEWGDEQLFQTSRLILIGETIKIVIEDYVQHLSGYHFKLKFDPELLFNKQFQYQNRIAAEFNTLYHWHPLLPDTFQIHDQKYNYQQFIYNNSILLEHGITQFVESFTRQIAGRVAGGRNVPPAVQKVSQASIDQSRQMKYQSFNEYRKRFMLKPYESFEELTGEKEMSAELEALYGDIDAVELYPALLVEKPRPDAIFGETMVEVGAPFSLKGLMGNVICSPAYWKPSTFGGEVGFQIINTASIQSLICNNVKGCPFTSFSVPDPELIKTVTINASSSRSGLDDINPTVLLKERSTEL
Description: Inhibition of human cyclooxygenase-2 expressed in COS cells

[3] = target: T2, Prostaglandin G/H synthase 2 (Rattus norvegicus) (UniProt P35355); assay: Percent reversal of FCA-induced arthritis in rats at 10 mg/kg; type: functional, organism-based; design: dose 10 mg/kg
T2 sequence (whole entry): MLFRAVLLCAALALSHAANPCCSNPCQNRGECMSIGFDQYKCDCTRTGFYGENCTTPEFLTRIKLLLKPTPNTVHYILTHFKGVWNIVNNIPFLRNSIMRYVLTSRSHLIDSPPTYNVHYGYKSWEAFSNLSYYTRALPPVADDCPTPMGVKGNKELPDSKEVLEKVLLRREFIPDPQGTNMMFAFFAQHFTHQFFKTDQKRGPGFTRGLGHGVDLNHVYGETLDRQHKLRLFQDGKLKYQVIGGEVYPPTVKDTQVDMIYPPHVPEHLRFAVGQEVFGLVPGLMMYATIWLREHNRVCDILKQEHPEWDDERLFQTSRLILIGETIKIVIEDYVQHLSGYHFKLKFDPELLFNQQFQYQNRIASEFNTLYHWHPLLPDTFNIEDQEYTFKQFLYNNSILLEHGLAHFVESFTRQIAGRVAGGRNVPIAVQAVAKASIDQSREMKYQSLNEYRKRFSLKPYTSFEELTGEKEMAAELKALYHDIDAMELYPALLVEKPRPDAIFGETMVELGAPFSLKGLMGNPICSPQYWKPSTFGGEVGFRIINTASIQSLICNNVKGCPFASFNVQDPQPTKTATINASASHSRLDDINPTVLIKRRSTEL

[4] = Clearance after iv administration of 2 mg/kg to rat; type: ADME, organism-based; design: dose 2 mg/kg, route intravenous; settings: in vivo
[5] = Distribution after iv administration of 2 mg/kg to rat; type: ADME, organism-based; design: dose 2 mg/kg, route intravenous; settings: in vivo, read-out: Distribution
[6] = Oral bioavailability after oral administration of 5 mg/kg to rat; type: ADME, organism-based; settings: in vivo, read-out: Bioavailabiility
[7] = Half life after iv administration of 2 mg/kg to rat; type: ADME, organism-based; design: dose 2 mg/kg, route intravenous; settings: in vivo

Chain of Prostaglandin G/H synthase 1 (P23219 whole entry): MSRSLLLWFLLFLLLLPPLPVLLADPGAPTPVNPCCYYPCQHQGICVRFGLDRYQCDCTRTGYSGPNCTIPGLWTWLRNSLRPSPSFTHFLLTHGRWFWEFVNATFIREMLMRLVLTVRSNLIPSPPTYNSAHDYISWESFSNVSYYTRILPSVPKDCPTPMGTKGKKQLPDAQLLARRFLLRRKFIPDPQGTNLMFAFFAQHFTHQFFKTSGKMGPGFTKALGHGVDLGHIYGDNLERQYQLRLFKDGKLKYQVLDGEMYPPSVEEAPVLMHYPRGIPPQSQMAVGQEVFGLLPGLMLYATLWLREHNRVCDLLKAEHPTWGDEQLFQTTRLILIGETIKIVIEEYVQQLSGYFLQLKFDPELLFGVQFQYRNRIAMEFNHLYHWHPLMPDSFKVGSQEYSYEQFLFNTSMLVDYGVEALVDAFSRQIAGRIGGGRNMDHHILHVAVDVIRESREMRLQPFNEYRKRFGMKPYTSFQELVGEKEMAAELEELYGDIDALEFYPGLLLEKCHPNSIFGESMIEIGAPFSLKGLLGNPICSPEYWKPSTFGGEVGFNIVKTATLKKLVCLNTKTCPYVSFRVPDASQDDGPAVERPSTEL

SMILES	IC50 [1]	IC50 [2]	Reversal activity [3]	clearance [4]	Vd [5]	bioavailability [6]	half-life [7]
CC(C)Oc1ccc2c(-c3ccc(S(C)(=O)=O)cc3)c(-c3ccc(F)cc3)nn2n1	> 100000 nM	57 nM	–	–	–	–	–
Cc1ccc(-c2nn3ncccc3c2-c2ccc(S(C)(=O)=O)cc2)cc1	> 19100 nM	17 nM	23%	–	–	–	–
CS(=O)(=O)c1ccc(-c2c(-c3cccc(F)c3)nn3ncccc23)cc1	58300 nM	34 nM	78%	–	–	–	–
Cc1ccc2c(-c3ccc(S(C)(=O)=O)cc3)c(-c3ccc(F)cc3)nn2n1	> 100000 nM	24 nM	–	–	–	–	–
CCc1ccc2c(-c3ccc(S(C)(=O)=O)cc3)c(-c3ccc(F)cc3)nn2n1	> 100000 nM	48 nM	40%	–	–	–	–
Cc1ccc(-c2ncc(Cl)cc2-c2ccc(S(C)(=O)=O)cc2)cn1 [ETORICOXIB]	> 100000 nM	–	–	–	–	–	–
CS(=O)(=O)c1ccc(-c2c(-c3ccc(F)cc3)nn3ncccc23)cc1	> 100000 nM	39 nM	–	–	–	–	–
COc1ccc2c(-c3ccc(S(C)(=O)=O)cc3)c(-c3ccc(F)cc3)nn2n1	> 35100 nM	51 nM	10%	–	–	–	–

The remaining lines, values ahead:

IC50 [1]	IC50 [2]	Reversal activity [3]	clearance [4]	Vd [5]	bioavailability [6]	half-life [7]	SMILES
> 100000 nM	2 nM	–	–	–	–	–	CS(=O)(=O)c1ccc(-c2c(-c3ccccc3)nn3ncccc23)cc1
> 100000 nM	50 nM	15%	–	–	–	–	COc1ccc2c(-c3ccc(S(C)(=O)=O)cc3)c(-c3ccc(C)cc3)nn2n1
8630 nM	13 nM	–	–	–	–	–	CCOc1ccc(-c2nn3nc(SC)ccc3c2-c2ccc(S(N)(=O)=O)cc2)cc1
24100 nM	< 10 nM	0%	–	–	–	–	NS(=O)(=O)c1ccc(-c2c(-c3ccc(F)cc3)nn3ncccc23)cc1
> 84200 nM	–	–	9 mL/min/kg	3 L/kg	80%	4.1 h	CCOc1ccc(-c2nn3ncccc3c2-c2ccc(S(C)(=O)=O)cc2)cc1 [GW-406381]
2610 nM	26 nM	–	–	–	–	–	COc1ccc2c(-c3ccc(S(N)(=O)=O)cc3)c(-c3ccc(F)cc3)nn2n1
43900 nM	< 31 nM	1%	–	–	–	–	Cc1ccc2c(-c3ccc(S(C)(=O)=O)cc3)c(-c3ccccc3)nn2n1
> 100000 nM	388 nM	92%	–	–	–	–	NS(=O)(=O)c1ccc(-c2c(-c3ccc(OC(F)(F)F)cc3)nn3ncccc23)cc1
> 100000 nM	43 nM	11%	–	–	–	–	CCOc1ccc2c(-c3ccc(S(C)(=O)=O)cc3)c(-c3ccc(F)cc3)nn2n1
> 100000 nM	264 nM	0%	–	–	–	–	CCOc1ccc(-c2nn3nc(S(C)(=O)=O)ccc3c2-c2ccc(S(N)(=O)=O)cc2)cc1
